Read-outs that look alike come from different tables or passages of the source.
What was measured:
[1] = target: T1, fatty acid amide hydrolase (FAAH) (Homo sapiens, UniProt O00519); experiment: Cayman plate-based fluorometric FAAH assay kit; format: biochemical
T1 construct: purchased Cayman 10005196
T1 sequence (O00519 1-579): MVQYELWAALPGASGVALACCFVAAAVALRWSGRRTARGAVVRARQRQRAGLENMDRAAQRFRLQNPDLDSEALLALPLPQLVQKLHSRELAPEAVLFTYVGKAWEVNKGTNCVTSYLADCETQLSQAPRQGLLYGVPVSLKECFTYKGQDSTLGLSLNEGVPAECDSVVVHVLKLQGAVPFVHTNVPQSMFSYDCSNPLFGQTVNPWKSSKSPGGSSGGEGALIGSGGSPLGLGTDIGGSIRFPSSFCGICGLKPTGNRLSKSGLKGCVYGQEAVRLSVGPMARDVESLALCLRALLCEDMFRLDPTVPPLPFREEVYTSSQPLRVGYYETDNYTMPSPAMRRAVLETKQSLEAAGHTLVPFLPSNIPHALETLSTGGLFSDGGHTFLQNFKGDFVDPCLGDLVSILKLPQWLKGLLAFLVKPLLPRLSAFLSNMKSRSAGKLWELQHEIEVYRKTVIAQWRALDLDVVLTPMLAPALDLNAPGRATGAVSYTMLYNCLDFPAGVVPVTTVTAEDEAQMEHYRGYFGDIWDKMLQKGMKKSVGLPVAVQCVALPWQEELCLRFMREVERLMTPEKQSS
Protocol: The inhibitory activity of the final products was evaluated against fatty acid amide hydrolase with Cayman plate-based fluorometric FAAH assay kit (item number 10005196) using an excitation wavelength of 340 nm and an emission wavelength of 450 nm. The enzyme was incubated with inhibitors for 5 min in […] Tris/HCl buffer (pH 9.0) at 37 °C. AMC-arachidonoyl amide and JZL-195 were used as substrate and positive control respectively. All test samples were dissolved in DMSO.
The IC50 of the compounds with inhibitory activity above 70% and JZL-195, reference compound, were investigated at concentrations of 0.1, 5, 10, 20, 50 and 100 nM. The results are summarized in Table 1 Evaluation of the 5a, 5b and 7 derivatives have well illustrated the effect of phenyl group on inhibitory activity, which is probably directly related to lipophilicity and π-π interactions in lipophilic envelope.

FAAH = target: FAAH; parameters: method as in PMID 28535469, PMID 21764305, PMID 10805767; details: 8 and 9, cited from earlier work
[2] = 100 nM compound, 5 min incubation, Tris/HCl pH 9.0, 37 °C, substrate AMC-arachidonoyl amide, read-out: %inhibition at 100nM
[3] = concentrations 0.1, 5, 10, 20, 50 and 100 nM, fluorometric FAAH assay, read-out: IC50

SMILES: O=C(Oc1ccc([N+](=O)[O-])cc1)N1CCN(Cc2cccc(Oc3ccccc3)c2)CC1 [JZL-195, reference compound]
- IC50 [1]: 1.31 nM
- inhibition at 0.1 µM ([1]; pH 9, read-out: %inhibition at 100nM): 81%

SMILES: O=C(NN1C(=O)CCC1=O)c1ccc(N2C(=O)CCC2=O)cc1 [Compound 9, N, 4-bis (2,5-dioxopyrrolidin-1-yl) benzamide]
- inhibition at 0.1 µM [1, 2]: 45.1%
- melting point: 273 to 275 °C

SMILES: O=C(NNS(=O)(=O)c1ccccc1)c1ccc(NS(=O)(=O)c2ccccc2)cc1 [Compound 13, N-(4-(2-(phenylsulfonyl) hydrazine-1-carbonyl)phenyl) benzenesulfonamide]
- inhibition at 0.1 µM [1, 2]: 31.4%
- melting point: 239 to 241 °C

SMILES: O=C(CCCCCCc1ccccc1)c1nnc(-c2ccccn2)o1 [OL-135 analogue]
- Ki (FAAH; known FAAH inhibitor, Figure 1): 0.29 nM

SMILES: O=C(NNC(=O)c1ccc(NC(=O)c2ccc(Cl)cc2)cc1)c1ccc(Cl)cc1 [Compound 10c, 4-chloro-N-(4-(2-(4-chlorobenzoyl) hydrazine-1-carbonyl)phenyl) benzamide]
- inhibition at 0.1 µM [1, 2]: 77.3%
- IC50 [1, 3]: 12.3 nM
- melting point: 315 to 318 °C

SMILES: O=C(NNC(=O)c1ccccc1C(=O)O)c1ccc(NC(=O)c2ccccc2C(=O)O)cc1 [Compound 12, 2-(2-(4-(2-carboxybenzamido)benzoyl) hydrazine-1-carbonyl) benzoic acid]
- inhibition at 0.1 µM [1, 2]: 80%
- IC50 [1, 3]: 1.62 nM
- melting point: 186 °C

SMILES: O=C(NNC(=O)c1ccc(NC(=O)c2ccc(F)cc2)cc1)c1ccc(F)cc1 [Compound 10e, 4-fluoro-N-(4-(2-(4-fluorobenzoyl) hydrazine-1-carbonyl)phenyl) benzamide]
- inhibition at 0.1 µM [1, 2]: 38.9%
- melting point: 322 to 325 °C

SMILES: O=C(O)CCC(=O)NNC(=O)c1ccc(NC(=O)CCC(=O)O)cc1 [Compound 11, 4-(2-(4-(3-carboxypropanamido)benzoyl) hydrazineyl)-4-oxobutanoic acid]
- inhibition at 0.1 µM [1, 2]: 51.2%
- melting point: 185 to 187 °C

SMILES: NC(=O)NNC(=O)c1ccc(NC(N)=O)cc1 [Compound 7, 2-(4-ureidobenzoyl) hydrazine-1-carboxamide]
- inhibition at 0.1 µM [1, 2]: 27.3%
- melting point: 226 to 228 °C (dec.)

SMILES: COc1ccc(C(=O)NNC(=O)c2ccc(NC(=O)c3ccc(OC)cc3)cc2)cc1 [Compound 10d, 4-methoxy-N-(4-(2-(4-methoxybenzoyl) hydrazine-1-carbonyl)phenyl) benzamide]
- inhibition at 0.1 µM [1, 2]: 77.3%
- IC50 [1, 3]: 5.1 nM
- melting point: 264 to 266 °C

SMILES: NC(=O)NNC(=O)c1ccc(NC(=O)c2ccccc2)cc1 [Compound 5a, 2-(4-benzamidobenzoyl) hydrazine-1-carboxamide]
- inhibition at 0.1 µM [1, 2]: 58.5%
- melting point: 283 to 285 °C

SMILES: O=C(NNC(=O)c1ccc([N+](=O)[O-])cc1)c1ccc(NC(=O)c2ccc([N+](=O)[O-])cc2)cc1 [Compound 10f, 4-nitro-N-(4-(2-(4-nitrobenzoyl) hydrazine-1-carbonyl)phenyl) benzamide]
- inhibition at 0.1 µM [1, 2]: 50.5%
- melting point: 287 to 289 °C

SMILES: NC(=O)NNC(=O)c1ccc(NC(=O)c2ccc(Cl)cc2)cc1 [Compound 5b, 2-(4-(4-chlorobenzamido)benzoyl) hydrazine-1-carboxamide]
- inhibition at 0.1 µM [1, 2]: 63.4%
- melting point: 325 to 327 °C

SMILES: O=C(NN1C(=O)c2ccccc2C1=O)c1ccc(N2C(=O)c3ccccc3C2=O)cc1 [Compound 8, N, 4-bis (1,3-dioxoisoindolin-2-yl) benzamide]
- inhibition at 0.1 µM [1, 2]: 31.3%
- melting point: 316 to 318 °C

SMILES: Cc1cccnc1NC(=O)CNC(=O)C(C)c1ccc(Nc2ccnc(C(F)(F)F)c2)cc1 (centres unmarked) [TPA-17]
- IC50 (FAAH; known FAAH inhibitor, Figure 1): 2400 nM
- FAAH inhibitory activity (FAAH; previously reported, in words): mild FAAH inhibitory activity

SMILES: O=C(NNC(=O)c1cccc(Cl)c1)c1ccc(NC(=O)c2cccc(Cl)c2)cc1 [Compound 10b, 3-chloro-N-(4-(2-(3-chlorobenzoyl) hydrazine-1-carbonyl)phenyl) benzamide]
- inhibition at 0.1 µM [1, 2]: 77.4%
- IC50 [1, 3]: 13.3 nM
- melting point: 273 to 275 °C

SMILES: O=C(NNC(=O)c1ccc(NC(=O)c2ccccc2)cc1)c1ccccc1 [Compound 10a, N-(4-(2-benzoylhydrazine-1-carbonyl)phenyl) benzamide]
- inhibition at 0.1 µM [1, 2]: 81.1%
- IC50 [1, 3]: 20.2 nM
- melting point: 265 to 267 °C
